# Reference: patent US20250171452A1 (Viscient Bio, Inc., priority 2022, published 2025)
# Counter-ions that a name gives are not always drawn.
# Target: IDO2 (Homo sapiens (Human), UniProt Q6ZQW0)
# Test: Cellular IDO2 assay, doxycycline and 5-methoxy-L-tryptophan medium, colorimetric
# Format: cell-based
# Conditions: cellular level, 72 h incubation, signal at 480 nm
# Chain of IDO2 (Q6ZQW0 whole entry, species assumed): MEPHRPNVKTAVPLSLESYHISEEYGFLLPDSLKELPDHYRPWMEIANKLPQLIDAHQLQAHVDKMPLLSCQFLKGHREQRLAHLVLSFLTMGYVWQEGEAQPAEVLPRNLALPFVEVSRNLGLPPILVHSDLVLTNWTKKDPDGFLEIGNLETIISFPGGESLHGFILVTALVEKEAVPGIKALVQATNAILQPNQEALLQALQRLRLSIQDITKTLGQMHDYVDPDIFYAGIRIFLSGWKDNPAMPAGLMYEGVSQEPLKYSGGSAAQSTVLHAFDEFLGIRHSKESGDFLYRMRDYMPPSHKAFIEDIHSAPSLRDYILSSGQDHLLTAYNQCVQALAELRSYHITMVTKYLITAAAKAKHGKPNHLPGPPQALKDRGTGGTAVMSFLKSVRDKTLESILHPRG
row,Compound,IC50
1,"3-bromo-8-nitroindolo[2,1-b]quinazoline-6,12-dione [Compound 65]",50 to 500 nM
2,"CON=C1c2cc(F)ccc2-n2c1nc1cc(CNS(C)(=O)=O)ccc1c2=O (stereo in doubt) [Compound 91, (Z)—N-((8-fluoro-6-(methoxyimino)-12-oxo-6,12-dihydroindolo[2,1-b]quinazolin-3-yl)methyl)methanesulfonamide]",< 50 nM
3,"CON=C1c2cc(F)ccc2-n2c1nc1cc(CNC(=O)OCc3ccccc3)ccc1c2=O (stereo in doubt) [Compound 93, benzyl (Z)-((8-fluoro-6-(methoxyimino)-12-oxo-6,12-dihydroindolo[2,1-b]quinazolin-3-yl)methyl)carbamate]",50 to 500 nM
4,"CON=C1c2cc(F)ccc2-n2c1nc1cc(CNC(C)=O)ccc1c2=O (stereo in doubt) [Compound 94, (Z)—N-((8-fluoro-6-(methoxyimino)-12-oxo-6,12-dihydroindolo[2,1-b]quinazolin-3-yl)methyl)acetamide]",50 to 500 nM
5,"CON=C1c2cc(C#N)ccc2-n2c1nc1c(Nc3ccc(F)cc3)cccc1c2=O (stereo in doubt) [Compound 118, (Z)-4-((4-Fluorophenyl)amino)-6-(methoxyimino)-12-oxo-6,12-dihydroindolo[2,1-b]quinazoline-8-carbonitrile]",< 50 nM
6,"CON=C1c2cc(F)ccc2-n2c1nc1c(Nc3ccc(F)cc3)cccc1c2=O (stereo in doubt) [Compound 122, (Z)-8-Fluoro-4-((4-fluorophenyl)amino)-6-(methoxyimino)indolo[2,1-b]quinazolin-12(6H)-one]",> 500 nM
7,"O=c1c2cccc(Nc3ccc(F)cc3)c2nc2n1-c1ccc(F)cc1C2=NO (stereo in doubt) [Compound 123, (Z)-8-Fluoro-4-((4-fluorophenyl)amino)-6-(hydroxyimino)indolo[2,1-b]quinazolin-12(6H)-one]",50 to 500 nM
8,"Cc1ccc2nc3n(c(=O)c2c1)-c1ccc([N+](=O)[O-])cc1C3=O [Compound 52, 2-Methyl-8-nitroindolo[2,1-b]quinazoline-6,12-dione]",< 50 nM
9,"O=C1c2cc(C(F)(F)F)ccc2-n2c1nc1ccccc1c2=O [Compound 53, 8-(Trifluoromethyl)indolo[2,1-b]quinazoline-6,12-dione]",< 50 nM
10,"O=C1c2cc([N+](=O)[O-])ccc2-n2c1nc1ccc(F)cc1c2=O [Compound 54, 2-Fluoro-8-nitroindolo[2,1-b]quinazoline-6,12-dione]",< 50 nM
11,"O=C1c2cc([N+](=O)[O-])ccc2-n2c1nc1cccc(Br)c1c2=O [Compound 55, 1-Bromo-8-nitroindolo[2,1-b]quinazoline-6,12-dione]",> 500 nM
12,"O=C1c2cc([N+](=O)[O-])ccc2-n2c1nc1cc(Cl)cc(Cl)c1c2=O [Compound 56, 1,3-Dichloro-8-nitroindolo[2,1-b]quinazoline-6,12-dione]",50 to 500 nM
13,"O=C1c2cc([N+](=O)[O-])ccc2-n2c1nc1cnccc1c2=O [Compound 57, 9-Nitropyrido[3′,4′:4,5]pyrimido[1,2-a]indole-5,11-dione]",< 50 nM
14,"COc1cc2c(=O)n3c(nc2cn1)C(=O)c1cc([N+](=O)[O-])ccc1-3 [Compound 58, 3-Methoxy-9-nitropyrido[3′,4′:4,5]pyrimido[1,2-a]indole-5,11-dione]",50 to 500 nM
15,"O=C1c2c(ccc(F)c2F)-n2c1nc1ccccc1c2=O [Compound 60, 7,8-Difluoroindolo[2,1-b]quinazoline-6,12-dione]",< 50 nM
16,NCCNC(=O)c1ccc2c(c1)/C(=N\O)c1nc3cc(Cl)ccc3c(=O)n1-2 [Compound 61],> 500 nM
17,"O=c1c2ccccc2nc2n1-c1ccc([N+](=O)[O-])cc1C2 [Compound 62, 8-Nitroindolo[2,1-b]quinazolin-12(6H)-one]",50 to 500 nM
18,[N-]=[N+]=Nc1ccc2c(c1)C(=O)c1nc3cc(Cl)ccc3c(=O)n1-2 [Compound 66],< 50 nM
19,CS(=O)(=O)c1ccc2c(c1)/C(=N\O)c1nc3cc(F)ccc3c(=O)n1-2 [Compound 67],50 to 500 nM
20,NCCNC(=O)c1ccc2c(c1)/C(=N\O)c1nc3cc(Cl)ccc3c(=O)n1-2 [Compound 68],50 to 500 nM
21,[2H]C([2H])(Nc1ccc2c(=O)n3c(nc2c1)C(=O)c1cc(F)ccc1-3)c1ccc(F)cc1 [Compound 69],< 50 nM

row,Compound,IC50
1,[2H]C([2H])(Nc1ccc2c(=O)n3c(nc2c1)C(=O)c1cc(C#N)ccc1-3)c1ccc(F)cc1 [Compound 70],< 50 nM
2,N#Cc1ccc2c(c1)C(=O)c1nc3c(Oc4ccc(F)cc4)cccc3c(=O)n1-2 [Compound 71],< 50 nM
3,N#Cc1ccc2c(c1)Cc1nc3cc(F)ccc3c(=O)n1-2 [Compound 72],< 50 nM
4,CC1(CCC(=O)Nc2ccc3c(c2)C(=O)c2nc4cc(Cl)ccc4c(=O)n2-3)N=N1 [Compound 73],50 to 500 nM
5,CO/N=C1\c2cc(F)ccc2-n2c1nc1cc(CN3CCN(C)CC3)ccc1c2=O [Compound 74],> 500 nM
6,NS(=O)(=O)c1ccc2c(c1)C(=O)c1nc3cc(Cl)ccc3c(=O)n1-2 [Compound 75],50 to 500 nM
7,O=c1c2ccc(Cl)cc2nc2n1-c1ccc(Br)cc1C2 [Compound 76],< 50 nM
8,CC(C)(C)OC(=O)NCCNC(=O)c1ccc2c(c1)C(=O)c1nc3cc(Cl)ccc3c(=O)n1-2 [Compound 77],50 to 500 nM
9,O=C1c2cc(SCc3ccccc3)ccc2-n2c1nc1cc(Cl)ccc1c2=O [Compound 78],50 to 500 nM
10,CN(C)S(=O)(=O)c1ccc2c(c1)C(=O)c1nc3cc(F)ccc3c(=O)n1-2 [Compound 79],< 50 nM
11,NC(=O)c1ccc2c(c1)Cc1nc3cc(F)ccc3c(=O)n1-2 [Compound 80],50 to 500 nM
12,O=C1c2cc(F)ccc2-n2c1nc1cc(NCc3ccc(F)cc3)ccc1c2=O [Compound 81],< 50 nM
13,CNS(=O)(=O)c1ccc2c(c1)C(=O)c1nc3cc(F)ccc3c(=O)n1-2 [Compound 82],< 50 nM
14,O=C1c2cc(F)ccc2-n2c1nc1cc(Nc3ccc(F)cc3)ccc1c2=O [Compound 83],< 50 nM
15,N#Cc1ccc2c(c1)/C(=N\O)c1nc3cc(Cl)ccc3c(=O)n1-2 [Compound 84],< 50 nM
16,CS(=O)(=O)c1ccc2c(c1)Cc1nc3cc(F)ccc3c(=O)n1-2 [Compound 85],50 to 500 nM
17,CS(=O)(=O)Nc1ccc2c(c1)C(=O)c1nc3cc(Cl)cc(Cl)c3c(=O)n1-2 [Compound 86],50 to 500 nM
18,CS(=O)(=O)c1ccc2c(c1)C(=O)c1nc3cc(Cl)cc(Cl)c3c(=O)n1-2 [Compound 87],< 50 nM
19,NS(=O)(=O)NCc1ccc2c(=O)n3c(nc2c1)C(=O)c1cc(F)ccc1-3 [Compound 88],< 50 nM
20,"O=C1c2cc(F)ccc2-n2c1nc1cc(-c3c[nH]cn3)ccc1c2=O [Compound 89, 8-fluoro-3-(1H-imidazol-4-yl)indolo[2,1-b]quinazoline-6,12-dione]",50 to 500 nM
21,"NCc1ccc2c(=O)n3c(nc2c1)C(=O)c1cc(F)ccc1-3 [Compound 90, 3-(aminomethyl)-8-fluoroindolo[2,1-b]quinazoline-6,12-dione Hydrochloride Salt]",50 to 500 nM

row,Compound,IC50
1,CC(C)(C)OC(=O)NCc1ccc2c(=O)n3c(nc2c1)C(=O)c1cc(F)ccc1-3 [Compound 92],< 50 nM
2,"CS(=O)(=O)NCc1ccc2c(=O)n3c(nc2c1)C(=O)c1cc(F)ccc1-3 [Compound 95, N-((8-fluoro-6,12-dioxo-6,12-dihydroindolo[2,1-b]quinazolin-3-yl)methyl)methanesulfonamide]",< 50 nM
3,"O=C(NCc1ccc2c(=O)n3c(nc2c1)C(=O)c1cc(F)ccc1-3)OCc1ccccc1 [Compound 96, benzyl ((8-fluoro-6,12-dioxo-6,12-dihydroindolo[2,1-b]quinazolin-3-yl)methyl)carbamate]",< 50 nM
4,"CO/N=C1/c2cc(F)ccc2-n2c1nc1cc(-n3ccnc3)ccc1c2=O [Compound 97, (Z)-8-fluoro-3-(1H-imidazol-1-yl)-6-(methoxyimino)indolo[2,1-b]quinazolin-12(6H)-one]",< 50 nM
5,"O=C1c2cc(F)ccc2-n2c1nc1cc(-n3ccnc3)ccc1c2=O [Compound 98, 8-fluoro-3-(1H-imidazol-1-yl)indolo[2,1-b]quinazoline-6,12-dione]",< 50 nM
6,CO/N=C1\c2cc(F)ccc2-n2c1nc1cc(CNS(N)(=O)=O)ccc1c2=O [Compound 99],< 50 nM
7,"CC(=O)NCc1ccc2c(=O)n3c(nc2c1)C(=O)c1cc(F)ccc1-3 [Compound 100, N-((8-fluoro-6,12-dioxo-6,12-dihydroindolo[2,1-b]quinazolin-3-yl)methyl)acetamide]",< 50 nM
8,"NCc1cccc2nc3n(c(=O)c12)-c1ccc(F)cc1C3=O [Compound 101, 1-(aminomethyl)-8-fluoroindolo[2,1-b]quinazoline-6,12-dione]",50 to 500 nM
9,NCc1cccc2nc3n(c(=O)c12)-c1ccc(F)cc1C3=O [Compound 102],< 50 nM
10,"O=C1c2cc(F)ccc2-n2c1nc1cccc(Br)c1c2=O [Compound 103, 1-bromo-8-fluoroindolo[2,1-b]quinazoline-6,12-dione]",< 50 nM
11,CN(C)Cc1ccc2nc3n(c(=O)c2c1Cl)-c1ccc(C#N)cc1C3=O [Compound 104],< 50 nM
12,Cc1ccc2nc3n(c(=O)c2c1Cl)-c1ccc(Br)cc1C3=O [Compound 105],< 50 nM
13,CS(=O)(=O)c1ccc2c(c1)C(=O)c1nc3cc(F)cc(F)c3c(=O)n1-2 [Compound 106],50 to 500 nM
14,CN(C)Cc1ccc2nc3n(c(=O)c2c1Cl)-c1ccc(Br)cc1C3=O [Compound 107],< 50 nM
15,O=C1c2cc([N+](=O)[O-])ccc2-n2c1nc1ccc(F)c(F)c1c2=O [Compound 108],50 to 500 nM
16,NS(=O)(=O)c1ccc2c(c1)C(=O)c1nc3cc(F)cc(F)c3c(=O)n1-2 [Compound 109],50 to 500 nM
17,O=C1c2cc([N+](=O)[O-])ccc2-n2c1nc1ccc(F)c(Cl)c1c2=O [Compound 110],< 50 nM
18,N#Cc1ccc2c(c1)C(=O)c1nc3c(Br)ccc(F)c3c(=O)n1-2 [Compound 111],50 to 500 nM
19,O=C1c2cc(SCc3ccccc3)ccc2-n2c1nc1cc(F)cc(F)c1c2=O [Compound 112],< 50 nM
20,N#Cc1ccc2c(c1)C(=O)c1nc3cc(Cl)cc(Cl)c3c(=O)n1-2 [Compound 113],< 50 nM
